# In US7749731B2, “Methods for recombinant peptide production” (XOMA Technology Ltd., priority 1999, dated 2010):
# What was measured:
# Assay in all cases: Broth microdilution antifungal assay
# Type in all cases: cell-based
# Details in all cases: Sabouraud dextrose broth, 30° C., 48 hours
# C. albicans SLU1 = test system: C. albicans SLU1
# Experimental: (§1) For example, studies were performed to evaluate the antifungal activity of the recombinant peptide from pING4702 purified according to Example 6 in a broth microdilution assay using four strains of C. albicans, C. glabrata and S. cerevisiae. A similar peptide, XMP.391, that was chemically synthesized, was included in the assay as a positive control. To perform the broth microdilution assay, the fungal cultures were grown overnight at 30° C. in YPD medium (1% yeast extract, 2% peptone, and 2% dextrose). A 400 fold dilution of each culture in YPD was then made, and grown at 30° C. for 8 hours. Three mL of each culture were collected by centrifugation and suspended in 0.9% NaCl to an A600 of about 0.3. These cultures were further diluted to 1×10^4 CFU/mL in Sabouraud dextrose broth (6 mL). Recombinant peptide was in 5 mM acetate, 150 mM NaCl, pH 5.0 at a concentration of about 2 mg/mL. Synthetic peptide was at about 1 mg/mL. Samples were serially diluted and added to microtiter plates containing the cultures. Plates were incubated at 30° C. for 48 hours before growth inhibition was measured.
# C. albicans 26555 = test system: C. albicans 26555
# Experimental: as §1
# C. albicans 14053 = test system: C. albicans 14053
# Experimental: as §1
# S. cerevisiae 9763 = test system: S. cerevisiae 9763
# Experimental: as §1
# C. glabrata 2001 = test system: C. glabrata 2001
# Experimental: as §1
# C. albicans 10231 = test system: C. albicans 10231
# Experimental: as §1
Substance,Concentration that gives 95% inhibition (C. albicans SLU1) [µM],Concentration that gives 95% inhibition (C. albicans 26555) [µM],Concentration that gives 95% inhibition (C. albicans 14053) [µM],Concentration that gives 95% inhibition (S. cerevisiae 9763) [µM],Concentration that gives 95% inhibition (C. glabrata 2001) [µM],Concentration that gives 95% inhibition (C. albicans 10231) [µM]
"Recombinant Peptide: BPI-derived peptide (SEQ ID NO: 3) acid-released from the Bone D-Asp-Pro-Pro-peptide fusion protein encoded by pING4702, purified according to Example 6 (KVGWLIQLFHKK; Human)",16,30,16,7.5,30,30
"XMP.391: Chemically synthesized 12 amino acid BPI-derived peptide (Lys Val Gly Trp Leu Ile Gln Leu Phe His Lys Lys), positive control (KVGWLIQLFHKK; printed: Lys Val Gly Trp Leu Ile Gln Leu Phe His Lys Lys)",13.5,16,16,2.0,30,16
